The values that follow come from patent publication EP0218400A1, “Assay methods for chemotherapeutic agents” (DAMON BIOTECH, INC., priority 1985, dated 1987).

The test concerns human Melanoma LOX cells. The test can be described thus: In vivo susceptibility of encapsulated LOX melanoma cells in nude mice. As to the method: In the experiments that follow, the drugs and other agents tested were administered to the host animal by injection at the various times called for in the protocol being tested. At various periods after treatment, the mice were killed by cervical dislocation. The peritoneal cavity of each mouse was washed with PBS or medium and floating microcapsules were aspirated using a large bore plastic Pasteur pipette. Microcapsules were transferred to 15 ml tubes and washed 3 to 4 times with PBS to remove host peritoneal cells. The washed microcapsules were aspirated into 1 ml serological pipettes, allowed to sediment, and the volume of packed microcapsules was determined. Microcapsules were then transferred to a glas dounce homogenizer (7 ml volume) and disrupted with 3 strokes of an A-tolerance plumger. Cells suspensions were filtered through nylon mesh to remove the disrupted membranes. The suspensions containing tumor cells were centrifuged and the pellet was resuspended in 0.25 to 0.5 ml of complete medium. After mixing equal volumes of cell suspension and trypan blue, viable cell counts were determined using a hemocytometer.
The number of tumor cells per 1 ml of packed microcapsules was determined as follows: a = ? where b = total number of tumor cells in the suspension, and c = total volume of microcapsules used for the preparation of this suspension.
By comparing the number of tumor cells in 1 ml of microcapsules derived from non-treated and drug-treated mice, the percent inhibition of tumor cell growth was calculated: [formula] where ac = number of tumor cells from the non-treated control microcapsules, and ae = number of tumor cells from the drug treated microcapsules.
In this series of experiments, cells of a fourth human cancer type, Melanoma LOX cells, were used. LOX cells have recently been proposed as the model for experimental treatment at the NCI Development Therapeutics Program. Following i.p. inoculation of the suspension of LOX Melanoma cells into nude mice, various drugs were administered i.v. and survival of the treated mice was determined (Schoemaker et al., Proceeding American Association for Cancer Research, 26, 1302, 1985) (mice transplanted with the non-encapsulated tumor cells were considered tumor-free if they survived during 3 months of observation). In parallel experiments encapsulated LOX Melanoma cells were transferred into nude mice and drugs were inoculated i.v. 1, 5 and 9 days at the dose and schedule utilized by the Dr. Shoemaker's procedure.

In the case of `COc1cccc2c1C(=O)c1c(O)c3c(c(O)c1C2=O)C[C@@](O)(C(=O)CO)C[C@@H]3O[C@H]1C[C@H](N)[C@H](O)[C@H](C)O1` [Adriamycin], where the note is “i.v. days 1, 5, 9”, the “sensitivity of encapsulated LOX cells to the treatment (in words)” value is reported as “most sensitive”. Further, the “No. of viable tumor cells per 1 ml. of capsules” value (i.v. days 1, 5, 9, Adriamycin 6, BCNU 20, CY 100, 5-Fu 60 mg/kg) was 6 x 10^5.
